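Briefly, cells in 96-well plates were exposed to five compound concentrations for 48 h, and endpoints were estimated by linear interpolation. TGI marks complete inhibition of growth.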
Key:
Experiment in all cases: NCI-60 cell line screen, 48 h
[1] = tested on: SK-MEL-28 melanoma
[2] = tested on: MCF7 breast
[3] = tested on: K-562 leukemia
[4] = tested on: NCI/ADR-RES ovarian
[5] = tested on: MDA-MB-231 breast
[6] = tested on: SN12C renal
[7] = tested on: HL-60(TB) leukemia
[8] = tested on: A498 renal
[9] = tested on: HCT-116 colon
[10] = tested on: HOP-62 NSCLC
[11] = tested on: TK-10 renal
[12] = tested on: MDA-N
[13] = tested on: COLO 205 colon
[14] = tested on: OVCAR-8 ovarian
[15] = tested on: UO-31 renal
[16] = tested on: BT-549 breast
[17] = tested on: HT29 colon
[18] = tested on: SF-295 CNS
[19] = tested on: SK-MEL-5 melanoma
[20] = tested on: NCI-H460 lung
[21] = tested on: MALME-3M melanoma
[22] = tested on: OVCAR-3 ovarian
[23] = tested on: HCC-2998 colon
[24] = tested on: A549 NSCLC
[25] = tested on: HS 578T breast
[26] = tested on: UACC-257 melanoma
[27] = tested on: ACHN renal
[28] = tested on: SK-MEL-2 melanoma
[29] = tested on: LOX IMVI melanoma
[30] = tested on: U251 CNS
[31] = tested on: M14 melanoma
[32] = tested on: IGROV1 ovarian
[33] = tested on: RPMI-8226 leukemia
[34] = tested on: NCI-H226 lung
[35] = tested on: MDA-MB-435
[36] = tested on: OVCAR-5 ovarian
[37] = tested on: SF-539 CNS
[38] = tested on: NCI-H23 lung
[39] = tested on: UACC-62 melanoma
[40] = tested on: SNB-19 CNS
[41] = tested on: SW-620 colon
[42] = tested on: CAKI-1 renal
[43] = tested on: NCI-H522 lung
[44] = tested on: PC-3 prostate
[45] = tested on: KM12 colon
[46] = tested on: HCT-15 colon
[47] = tested on: DU-145 prostate
[48] = tested on: SR leukemia
[49] = tested on: 786-0 renal
[50] = tested on: EKVX NSCLC
[51] = tested on: MOLT-4 leukemia
[52] = tested on: OVCAR-4 ovarian
[53] = tested on: RXF 393 renal
[54] = tested on: HOP-92 NSCLC
[55] = tested on: SF-268 CNS

In the case of C/C(NC(=O)c1ccccc1)=C(/C(=O)c1ccccc1)[C@@H]1OC(C)(C)O[C@@H]1[C@H]1COC(C)(C)O1, the TGI [1] is reported as greater than 100 µM, the TGI [2] is reported as greater than 100 µM and the TGI [3] is reported as 52.8 µM. The TGI [4] was greater than 100 µM, the TGI [5] was greater than 100 µM and the TGI [6] was 60.4 µM. The TGI [7] was 43.8 µM, the TGI [8] was greater than 100 µM and the TGI [9] was 52.5 µM. For the same compound, the TGI [10] was greater than 100 µM, the TGI [11] was greater than 100 µM and the TGI [12] was 39.1 µM. It also gave a TGI [13] of 48.9 µM, a TGI [14] greater than 100 µM and a TGI [15] of 30.1 µM. It also gave a TGI [16] of 82.4 µM, a TGI [17] of 86.3 µM and a TGI [18] greater than 100 µM. The TGI [19] was 35.6 µM, the TGI [20] was 65.5 µM and the TGI [21] was greater than 100 µM. For the same compound, the TGI [22] was greater than 100 µM, the TGI [23] was 87.6 µM and the TGI [24] was greater than 100 µM. For the same compound, the TGI [25] was greater than 100 µM, the TGI [26] was greater than 100 µM and the TGI [27] was greater than 100 µM. For the same compound, the TGI [28] was 54.9 µM, the TGI [29] was 45.5 µM and the TGI [30] was greater than 100 µM. It also gave a TGI [31] greater than 100 µM, a TGI [32] of 42 µM and a TGI [33] of 47.7 µM. It also gave a TGI [34] greater than 100 µM, a TGI [35] of 39.9 µM and a TGI [36] greater than 100 µM. The TGI [37] was greater than 100 µM, the TGI [38] was 93.9 µM and the TGI [39] was greater than 100 µM. It also gave a TGI [40] greater than 100 µM, a TGI [41] of 55.1 µM and a TGI [42] greater than 100 µM. It also gave a TGI [43] of 36 µM, a TGI [44] greater than 100 µM and a TGI [45] greater than 100 µM. The TGI [46] was greater than 100 µM, the TGI [47] was greater than 100 µM and the TGI [48] was 38.5 µM. For the same compound, the TGI [49] was 39.7 µM, the TGI [50] was 48.4 µM and the TGI [51] was 37.2 µM. For the same compound, the TGI [52] was greater than 100 µM, the TGI [53] was greater than 100 µM and the TGI [54] was 86.6 µM. It also gave a TGI [55] greater than 100 µM.
